According to publication PMC6158189, “A pharmacological probe identifies cystathionine β-synthase as a new negative regulator for ferroptosis” (Cell Death & Disease, 2018):
Where “and” joins values, the source holds several entries; their conditions need not be identical. Equal values may be shown once.

Legend:
HEK293T cells = assay: total Hcys in HEK293T cells (ELISA); type: cell-based; details: 5 or 10 μM, 12 h
Description: (§1) Fig. 3 The effect of CH004 on the activity of endogenous hCBS in cells. a CH004 dose-dependently elevates the levels of Hcys in HepG2 and HEK293T cells. HepG2 cells or HEK293T cells were incubated with indicated CH004 or DMSO (control) for 12 h. The amount of total Hcys in cells was measured by ELISA using Axis® Homocysteine EIA kit (IBL, AX51301) (“Materials and Methods” section). […] HepG2 cells were treated with indicated DMSO, CH004 or HA for 8 h before the staining with AzMC probe. The amount of the H2S (blue) was quantified and is shown in (c). Bars, 50 μm. Control (CTR), DMSO group (100%). A representative fluorescence image from three independent experiments is shown. Means ± SDS (n = 3). d CH004 elevates Hcys in the peripheral blood of rats. The total Hcys of the blood samples collected from the anesthetized rats at the 75 min time point (Materials and Methods) were quantified by ELISA (see above). Means ± SDS (n = 6).
(§2) HepG2 or HEK293T cells were seeded in poly-D-Lys-coated 6-well plates at a density of ∼ 5 × 10^5 cells per well for one day, treated with DMSO or various concentrations of compounds for another 12 h before the collection by scraping or trypsinization. […]

hCBS-FL = molecular target: T1, hCBS-FL (Homo sapiens, UniProt P35520); assay: purified hCBS full-length enzyme assay; type: biochemical; set-up: human CBS or hCSE full-length (CBS-FL or CSE) was subcloned into pGEX-KG, pcDNA3 or pCDH vector; GST (N); made in house; host or cells: E. coli BL21; details: standard conditions
T1 sequence (P35520 1-551): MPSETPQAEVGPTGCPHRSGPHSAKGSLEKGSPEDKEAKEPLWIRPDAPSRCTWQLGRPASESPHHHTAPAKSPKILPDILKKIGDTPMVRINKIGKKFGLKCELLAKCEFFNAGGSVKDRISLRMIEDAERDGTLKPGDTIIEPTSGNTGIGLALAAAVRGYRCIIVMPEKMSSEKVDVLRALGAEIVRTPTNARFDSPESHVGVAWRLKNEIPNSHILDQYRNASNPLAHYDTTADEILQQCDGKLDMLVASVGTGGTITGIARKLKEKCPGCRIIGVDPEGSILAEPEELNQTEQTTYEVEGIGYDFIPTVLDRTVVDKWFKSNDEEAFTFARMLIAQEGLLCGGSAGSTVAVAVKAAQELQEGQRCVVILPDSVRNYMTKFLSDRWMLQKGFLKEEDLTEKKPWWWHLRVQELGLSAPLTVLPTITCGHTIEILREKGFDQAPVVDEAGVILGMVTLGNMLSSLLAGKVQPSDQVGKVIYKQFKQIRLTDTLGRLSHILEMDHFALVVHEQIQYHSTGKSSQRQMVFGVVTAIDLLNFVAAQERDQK
Description: The IC50 values of CH004 for hCBS-413, hCBS-413 mutants, hCBS-FL, hCSE or hDDC were determined according to the standard assay conditions otherwise indicated.
^2The IC50 were determined for hCBS-FL.

HepG2 cells = assay: total Hcys in HepG2 cells (ELISA); type: cell-based, human; details: 5 or 10 μM, 12 h
Description: as §1, §2

`Cn1nc(Cc2ccccc2)nc2c(=O)n(C)c(=O)nc1-2` [CH004, 3-benzyl-1,6-dimethylpyrimido[5,4-e][1,2,4]triazine-5,7(1H,6H)-dione] was tested, and the “increase of Hcys” value (HEK293T cells) was ~ 2 fold, the IC50 (hCBS-FL) was ~590 nM and 590 nM and the “increase of Hcys” value (HepG2 cells) was ~ 2 fold.
